Source: patent US7494976B2, “Caveolin peptides and their use as therapeutics” (Yale University, priority 2000, dated 2009)
“Also recorded” adds a separate entry of the source.

Assays:
isolated mouse aorta [1] = experiment: Ach-induced relaxation of isolated mouse aortic rings (organ bath); settings: 10 μM peptide, twenty hours incubation, PE precontracted rings
Experimental: (§1) For isolated mouse aortic rings preparations, male C57 black mice (5-7 weeks of age) were anesthetized with methoxyflurane and sacrificed by exsanguination. The thoracic aorta was dissected and cut into cylindrical segments of three millimeters in length. Using a sterile 48-well tissue culture plate, each ring was incubated in a total volume of one ml with either peptides or vehicle (DMSO) diluted in DMEM supplemented with penicillin (100 units/ml), streptomycin (100 μg/ml) and L-glutamine (1 mM). The plate was incubated with 5% CO2. Following incubation with the peptides (one, six, twelve or twenty hours), rings were washed in oxygenated (95% O2-5% CO2) Krebs-Henseleit bicarbonate buffer solution (KHS) of the following composition (NaCl—118.3 mmol/L, KCl—4.7 mmol/L, CaCl2—2.5 mmol/L, MgSO4—1.2 mmol/L, KH2PO4—1.2 mmol/L, NaHCO3—25 mmol/L, glucose—5.6 mmol/L at 37° C. with ibuprofen (10 μM). The rings were suspended by two tungsten wires ([…] thickness) inserted into the lumen and mounted in a vessel myograph system (five ml chamber, Kent Scientific). The mouse aortas were submitted to a resting tension of 1.5 grams and isometric tension was recorded using a force transducer coupled to a MacLab data acquisition system. […] In some experiments concentration-response curves to the contractile effects of PE were monitored.

isolated mouse aorta [2] = experiment: Phenylephrine-induced contraction of isolated mouse aorta; settings: 10 μM peptide preincubation
Experimental: as §1

mouse aortic rings = experiment: L-NAME induced contraction of peptide-pretreated mouse aortic rings; settings: vessels pretreated with 10 μM peptide; L-NAME 100 μM
Experimental: as §1, with “monitored. […]” for “monitored.”

isolated mouse aortas = experiment: Sodium nitroprusside induced (endothelium independent) relaxation of mouse aorta; settings: 10 μM peptide, twenty hours; SNP 10 μM
prostacyclin production = experiment: Prostacyclin release from mouse aortic rings (6-keto-PGF1α by EIA); settings: peptide twenty hours; Ach 1 μM thirty minutes
Experimental: To further test the specificity of AP-Cav, Ach-induced prostacyclin production was measured. For measurement of prostacyclin release, after twenty hour incubation period, aortic segments (4-5 mm) were placed in sterile 48-well tissue culture plates with 300 μl of KHS at 37° C. for thirty minutes in an incubator. Then aliquots of […] were taken in order to measure the basal release of prostacyclin. Ach (1 μM) was added and the plate was kept in the incubator for an additional thirty minutes. Aliquots were then taken in order to measure the Ach-stimulated release of prostacyclin. This protocol was performed in absence or in presence of ibuprofen (10 μM). The aliquots were frozen and prostacyclin release was measured as the stable breakdown product, 6-keto-PGF1α, by EIA (Amersham).

[3] = test system: bovine aortic endothelial cells (BAEC); experiment: Ionomycin stimulated NO release from cultured endothelial cells (chemiluminescence); type: cell-based; settings: 1 μM peptide six hours; ionomycin 1 μM thirty minutes
Experimental: For measurement of nitric oxide release from cultured endothelial cells, bovine aortic endothelial cells (BAEC) were cultured in high glucose Dulbecco's modified Eagle's medium (DMEM) containing 10% (v/v) fetal bovine serum, penicillin, streptomycin and L-glutamine. For measurement of ionomycin stimulated NO release, confluent BAEC were cultured in […]. Cells were washed and media was changed to serum free DMEM containing peptides or vehicle (0.01% DMSO). Following a six hour incubation, peptides were washed out and cells were stimulated with ionomycin (1 μM) for thirty minutes. Media was collected and processed for the measurement of nitrite (NO2—), the stable breakdown product of NO in aqueous solution, by NO-specific chemiluminescence. Samples containing NO2— were refluxed in glacial acetic acid containing sodium iodide. […] In all experiments, NO2— release was inhibitable by a NOS inhibitor.

[4] = test system: carrageenan induced paw edema; experiment: Murine carrageenan induced paw edema model; type: in vivo, mouse; settings: 1 mg/kg, paws 48 hours post-injection, H&E
Experimental: For in vivo inflammation studies the murine carrageenan induced paw edema model was used. Briefly, male, Swiss mice (25-30 grams) were divided in groups (n=6-7) and lightly anaesthetised with methoxyflurane. Each group of animals received a subplantar administration of 50 μl of 1% (w/v) λ carrageenan. Paw volume was measured using a hydroplethismometer modified for measuring small volumes (Ugo Basile) immediately before the carrageenan injection and twenty-four and forty-eight hours thereafter. The increase in paw volume is evaluated as the difference between paw volume at each time point and the basal volume. AP-Cav (0.3, 1 mg/kg i.p.) AP-Cav-X (1 mg/kg i.p.) and dexamethasone (0.1 mg/kg s.c.) were administered at the time of carrageenin administration (time zero) and at twenty-four and forty-eight hours. In a separate series of experiments, forty-eight hours post carrageenan injections, animals were sacrificed by cervical dislocation and both paws were cut. The right paws were embedded in OCT medium and cross sections ([…] of thickness) were obtained for staining with hematoxylin and eosin.

HepG-2 tumors = experiment: HepG-2 tumor growth in nude mice; type: in vivo, mouse; settings: 2.5 mg/kg, day fourteen
Experimental: The ability of the AP-Cav peptide to influence tumor growth in vivo was also examined. Nude mice were injected with the HepG-2 cells, a human hepatocarcinoma line, and the effects of AP-Cav and AP-Cav-X examined after daily administration of the peptides intraperitoneal. For HepG-2 cells implants in nude mice, the human hepatocarcinoma cell line, HepG-2, was cultured in minimal essential media with 10% fetal bovine serum, 2 mM L-glutamine, penicillin and streptomycin. Cells were grown on 150 mm dishes up to 80% confluence, trypsinized and ressuspended in serum free media. Viable cells were counted using the trypan blue exclusion method. A cell suspension was prepared at a density of 5×10^7 cells/ml. Nude mice were then injected in the flank with 100 μl of the HepG-2 cell suspension.
When the tumors reached a solid palpable mass (7-10 days), treatment with the different drugs began. Peptides were dissolved in 0.01% (v/v) DMSO and administered daily by i.p. injection (100 μl/20 gram mouse) for fourteen days. Tumor volume was determined every day using the formula width^2×length×0.52. For histochemistry tumors were excised from the animal at day fourteen, washed in phosphate buffered saline and fixed in 70% ethanol. […] Images were captured using a Zeiss microscope coupled to a CCD camera and were recorded with the NIH Image program.

vascular leakage = experiment: Mustard oil induced Evans blue extravasation in the mouse ear (vascular permeability); type: in vivo; settings: 2 mg/kg i.p., forty-five minute pretreatment; read after thirty minutes
Experimental: FIG. 10—AP-caveolin peptide reduces vascular leakage. Mice were pretreated with AP-Cav, AP-Cav-X (2 mg/kg of each, i.p.) or L-NAME (30 mg/kg, i.p.) for forty-five minutes followed by Evans blue administration (30 mg/kg, i.v.). Mustard oil was applied to the ventral and dorsal side of the right ear one minute after Evans blue injection. The extent of Evans blue extravasation was assessed after thirty minutes (n=4 mice per group for vehicle and L-NAME treated mice and n=5 for AP-Cav and AP-Cav-X treated mice; *p<0.05). (D) Representative pictures of mice subjected to mustard oil induced inflammation.
To directly assess if the AP-peptide can influence vascular leakage in an additional model, we treated mice with vehicle, AP-Cav, AP-Cav-X (2 mg/kg, i.p. for each; forty-five minute pretreatment) or L-NAME (30 mg/kg, i.p., […] pretreatment) and examined the ability of mustard oil to induce the extravasation of Evans blue, as an index of vascular permeability. […] Thus, in two distinct models, AP-Cav reduces inflammation likely through attenuating eNOS-dependent blood flow and/or permeability changes evoke by inflammatory stimuli.

AP-Cav-X: Scrambled control peptide Cav-X (WGIDKAFFTTSTVTYKWFRY, SEQ ID NO: 9) fused to the antennapedia internalization sequence; SEQ ID NO: 12 (RQIKIWFQNRRMKWKKWGIDKAFFTTSTVTYKWFRY)
effect on Ach-induced relaxation (isolated mouse aorta [1]): did not influence Ach-induced relaxation
potentiation of the vasoconstrictor actions of phenylephrine (isolated mouse aorta [2]): but not AP-Cav-X resulted in potentiation
further increase in isometric tension by L-NAME (mouse aortic rings): further increased isometric tension
effect on vasorelaxant properties of sodium nitroprusside (isolated mouse aortas): had no effect
basal or Ach stimulated prostacyclin production (6-keto-PGF1α) (prostacyclin production): Neither AP-Cav-X nor AP-Cav influenced; also recorded: do not affect Ach-induced prostacyclin release
calcium ionophore stimulated NOx release [3]: but not AP-Cav-X blocked
cellular infiltration into the sites of inflammation (histology) [4]: did not show marked differences
tumor morphology (hematoxylin and eosin) (HepG-2 tumors): classical epitheliod appearance and were highly vascularized
vascular leak (Evans blue extravasation) (vascular leakage): dilated vessels and diffuse blue dye in the periphery of the right ear
